Consider 1 molecule from publication PMC3877268, “Reconstructed Ancestral Myo-Inositol-3-Phosphate Synthases Indicate That Ancestors of the Thermococcales and Thermotoga Species Were More Thermophilic than Their Descendants” (PLoS ONE, 2013).

Experiment in all cases: periodate / malachite green phosphate assay, Lineweaver-Burk
Holding throughout (format): biochemical, synthetic construct

One assay deals with T1, ATM_T2.
T1 construct: reconstructed node T ancestor, one of four (125/126 Ser/Lys or Thr/Glu); gene by GenScript, pBAD TOPO, E. coli TOP10
Conditions: 15 mM NH4Cl, 10 mM imidazole-HCl pH 7.8, 83 °C (Topt). The source says: periodate / malachite green phosphate assay, Lineweaver-Burk on ATM_T2

The next assay has as its system T2, ACM_C2.
T2 construct: gene by GenScript, pBAD TOPO, E. coli TOP10
Conditions: 15 mM NH4Cl, 10 mM imidazole-HCl pH 7.8, 95 °C (Topt). An excerpt:
periodate / malachite green phosphate assay, Lineweaver-Burk on ACM_C2

The next assay deals with T3, ATM_T1.
T3 construct: reconstructed node T ancestor, one of four (125/126 Ser/Lys or Thr/Glu); gene by GenScript, pBAD TOPO, E. coli TOP10
The following applies: 15 mM NH4Cl, 10 mM imidazole-HCl pH 7.8, 90 °C (Topt). An excerpt:
periodate / malachite green phosphate assay, Lineweaver-Burk on ATM_T1

The subject of another assay is T4, AAM_A2.
T4 construct: gene by GenScript, pBAD TOPO, E. coli TOP10
The following applies: 15 mM NH4Cl, 10 mM imidazole-HCl pH 7.8, 99 °C (Topt). The source says: periodate / malachite green phosphate assay, Lineweaver-Burk on AAM_A2

The subject of the next assay is T5, ACM_C1.
T5 construct: gene by GenScript, pBAD TOPO, E. coli TOP10
The following applies: 15 mM NH4Cl, 10 mM imidazole-HCl pH 7.8, 95 °C (Topt). The source says:
periodate / malachite green phosphate assay, Lineweaver-Burk on ACM_C1

Another assay concerns T6, ATM_T3.
T6 construct: reconstructed node T ancestor, one of four (125/126 Ser/Lys or Thr/Glu); gene by GenScript, pBAD TOPO, E. coli TOP10
Conditions: 15 mM NH4Cl, 10 mM imidazole-HCl pH 7.8, 85 °C (Topt). An excerpt: periodate / malachite green phosphate assay, Lineweaver-Burk on ATM_T3

For another assay, the system named is T7, ATM_T4.
T7 construct: reconstructed node T ancestor, one of four (125/126 Ser/Lys or Thr/Glu); gene by GenScript, pBAD TOPO, E. coli TOP10
Conditions: 15 mM NH4Cl, 10 mM imidazole-HCl pH 7.8, 83 °C (Topt). The source says: periodate / malachite green phosphate assay, Lineweaver-Burk on ATM_T4

Another assay deals with T8, AAM_A1.
T8 construct: gene by GenScript, pBAD TOPO, E. coli TOP10
Conditions: 15 mM NH4Cl, 10 mM imidazole-HCl pH 7.8, 99 °C (Topt). An excerpt:
periodate / malachite green phosphate assay, Lineweaver-Burk on AAM_A1

Take `O=P(O)(O)OC[C@H]1OC(O)[C@H](O)[C@@H](O)[C@@H]1O` (some centres unmarked) [glucose-6-phosphate]: the Km in the assay with ATM_T2 was found to be 460 ± 80 µM; in the assay with ACM_C2, 6270 ± 1940 µM; with ATM_T1 it was 630 ± 100 µM; in the assay on AAM_A2 it was 1320 ± 110 µM; in the assay on ACM_C1, 2340 ± 460 µM; in the assay on ATM_T3, 540 ± 150 µM. Besides, the results for the Michaelis constant (Km) in the assay on ATM_T4 and in the assay with AAM_A1 were 600 ± 60 µM and 2770 ± 600 µM, respectively.

What is called Km is the substrate concentration at which the rate is half of its maximum.
